In patent publication US20130136839A1, “Taste-Masking Compositions, Sweetener Compositions and Consumable Product Compositions Containing the Same” (Nutrinova Nutrition Specialties & Food Ingredients GmbH, priority 2011, published 2013):

Assays:
Format in all cases: in vivo, human
[1] = tested on: panel of 11 trained sensory evaluators; experiment: Taste and spit assay with regard to sweetness in the aftertaste, panel of 11 trained sensory evaluators (Example 2); conditions: aqueous samples; 35 ml at 6.0-8.0 °C; aftertaste after 2 minutes; 11 panelists; qualitative, FIG. 2
Description: Air was constantly exchanged.
(§1) The samples were prepared by a trained laboratory assistant.
(§2) The panel used the sweetness scale anchored by three concentrations of sucrose:
(§3) Sweetness was assessed with the 1st sip (max. 30 ml, min of 15 ml) and scored in the aftertaste (after 2 minutes).
(§4) All samples were tested in duplicate.

[2] = tested on: panel of 4 trained sensory evaluators; experiment: Taste and spit assay with regard to sweetness in the aftertaste, panel of 4 trained sensory evaluators (Example 33); conditions: 35 ml at 6.0-8.0 °C; aftertaste after 2 minutes; all 4 panelists; qualitative
Description: (§5) All tests were conducted under controlled and standardized conditions.
as §1, §2, §3, §4
The samples with the same composition as in Example 1 have been assessed: […]

[3] = tested on: panel of 4 trained sensory evaluators; experiment: Taste and spit assay, descriptive taste impression versus base samples, panel of 4 trained sensory evaluators (Examples 3 to 31); conditions: acesulfame K 350 wppm
Description: as §5, §1
35 ml of the samples were served at room temperature in clear plastic cups.
The following samples comprising a composition of the invention were tested for their ability to improve the taste of artificial sweeteners.
All samples were tested in duplicate and evaluated at least 3 different concentrations in comparison to 3 base samples (samples 1 to 3).
The panelists were asked to evaluate and to describe the taste impression of the samples 4 to 13 containing a sweetener composition comprising acesulfame potassium, sucralose and a composition of the invention, e.g. bitter aftertaste, creaminess, fullness and character of the sweeteners in each case in comparison to the base samples 1 to 3.
The results of the taste and spit assay are based in each case on a qualitative evaluation of the differences between the samples.

panelists [4] = experiment: Dilution of naringin in water until its taste is no longer detectable (Example 34); conditions: diluted in water
Excerpt: The method comprises the step of selecting at least one flavoring. The flavorings may be as discussed herein. The method may further comprise the step of diluting the at least one flavoring with a diluent to form a diluted composition to determine a flavor threshold level at which the flavor of the flavoring is not detectable, e.g., by taste, in the diluted composition. In order to make this determination, the diluted composition may be sampled, e.g., tasted, at various stages of dilution. As the diluted composition becomes more dilute, the flavor of the flavorant will become less recognizable or identifiable. The flavor threshold level is the point at which the flavor of the flavoring is no longer recognized or identified by a taster or taste panel. The method further comprises the step of adding at least one flavoring to a sweetener and/or sweetness enhancer to form a sweetener composition. The sweeteners and/or sweetness enhancers are discussed above. The sweeteners and/or sweetness enhancers may have an unpleasant off-taste associated therewith, as discussed above. Preferably, the flavoring is added to the sweetener and/or the sweetness enhancer at a level at or below the flavor threshold level.
Naringin was diluted in water until the diluted solution reached a concentration of 1.6 wppm. At this concentration, its taste was no longer detectable in water.

panelists [5] = experiment: Naringin at non-detectable concentration tested in acesulfame K and acesulfame K/sucralose solutions (Example 34); conditions: naringin 1.6 wppm (not detectable) in acesulfame K (350 ppm) solution and in acesulfame K (350 wppm)/sucralose (80 wppm) solution; all panelists
Excerpt: The method further comprises the step of determining whether the at least one flavoring, when present in the sweetener composition at or below the flavor threshold level, is capable of modifying, masking, reducing and/or suppressing the unpleasant off-taste of the sweetener/sweetness enhancer in the sweetener composition. This determination may be made by employing suitable methods known in the art. For example the determination may be made by utilizing a taster or a taste panel. The taster may sample the prepared sweetener composition and make a determination as to whether the off-taste has been modified, masked, reduced, and/or suppressed. If so, then the particular flavoring is capable of modifying, masking, reducing, and/or suppressing unpleasant off-tastes. Preferably, the flavor of the flavoring is not detectable, e.g., by taste, in the sweetener composition, the sweetness enhancer composition, and/or the consumable product composition.
Then, naringin was tested at this concentration in an aceslfame K (350 ppm) solution and in an acesulfame K (350 wppm)/sucralose (80 wppm) solution.

[6] = composition with amino acids: benzaldehyde 0.02 wppm in sample 13 (sucralose 75 wppm), quinine 0.01 wppm in sample 32 (sucralose 80 wppm)
[7] = composition without amino acids: benzaldehyde 0.02 wppm in sample 12, quinine 0.01 wppm in sample 31, sucralose 80 wppm

Molecule: saccharose [Sample 1]
- sweetness in the aftertaste [1]: less sweet in the aftertaste than acesulfame potassium and sucralose
- sweetness in the aftertaste [2]: less sweet in the aftertaste compared to acesulfame potassium and sucralose

Molecule: O=Cc1ccccc1 [Benzaldehyde, benzaldehyde]
- further effect added to the composition by the substance used below its threshold [3, 6]: did not add any further effect to the composition of the invention
- further effect added to the composition by the substance used below its threshold [3, 7]: did not add any further effect to the composition of the invention

Molecule: C[C@@H]1O[C@@H](O[C@H]2[C@H](Oc3cc(O)c4c(c3)O[C@H](c3ccc(O)cc3)CC4=O)O[C@H](CO)[C@@H](O)[C@@H]2O)[C@H](O)[C@H](O)[C@H]1O [Naringin]
- concentration at which its taste was no longer detectable in water (panelists [4]): 1.6 wppm
- effect on the bitter aftertaste of acesulfame K (panelists [5]): improve the bitter aftertaste of acesulfame K

Molecule: delta-undecalactone
- taste contribution of the lactone to the total composition ([3]; delta-undecalactone 0.0388 wppm in sample 14 with naringin, 4-methoxy salicylaldehyde, syringaldehyde, whiskey lactone, sucralose 80 wppm, all panelists): not being too volatile and as adding a creamy taste, and as improving the total composition

Molecule: C=C[C@H]1C[N@@]2CC[C@H]1C[C@H]2[C@H](O)c1ccnc2ccc(OC)cc12 [Quinine, quinine]
- further effect added to the composition by the substance used below its threshold [3, 6]: does not add anything to the effects of the composition
- further effect added to the composition by the substance used below its threshold [3, 7]: does not add anything to the effects of the composition
